Results taken from patent US7057048B2, “Androgen receptor antagonists” (Warner Lambert Company LLC, priority 2003, dated 2006).

Target: T1, androgen receptor (Homo sapiens, UniProt P10275)
T1 sequence (P10275 1-920 Q868H): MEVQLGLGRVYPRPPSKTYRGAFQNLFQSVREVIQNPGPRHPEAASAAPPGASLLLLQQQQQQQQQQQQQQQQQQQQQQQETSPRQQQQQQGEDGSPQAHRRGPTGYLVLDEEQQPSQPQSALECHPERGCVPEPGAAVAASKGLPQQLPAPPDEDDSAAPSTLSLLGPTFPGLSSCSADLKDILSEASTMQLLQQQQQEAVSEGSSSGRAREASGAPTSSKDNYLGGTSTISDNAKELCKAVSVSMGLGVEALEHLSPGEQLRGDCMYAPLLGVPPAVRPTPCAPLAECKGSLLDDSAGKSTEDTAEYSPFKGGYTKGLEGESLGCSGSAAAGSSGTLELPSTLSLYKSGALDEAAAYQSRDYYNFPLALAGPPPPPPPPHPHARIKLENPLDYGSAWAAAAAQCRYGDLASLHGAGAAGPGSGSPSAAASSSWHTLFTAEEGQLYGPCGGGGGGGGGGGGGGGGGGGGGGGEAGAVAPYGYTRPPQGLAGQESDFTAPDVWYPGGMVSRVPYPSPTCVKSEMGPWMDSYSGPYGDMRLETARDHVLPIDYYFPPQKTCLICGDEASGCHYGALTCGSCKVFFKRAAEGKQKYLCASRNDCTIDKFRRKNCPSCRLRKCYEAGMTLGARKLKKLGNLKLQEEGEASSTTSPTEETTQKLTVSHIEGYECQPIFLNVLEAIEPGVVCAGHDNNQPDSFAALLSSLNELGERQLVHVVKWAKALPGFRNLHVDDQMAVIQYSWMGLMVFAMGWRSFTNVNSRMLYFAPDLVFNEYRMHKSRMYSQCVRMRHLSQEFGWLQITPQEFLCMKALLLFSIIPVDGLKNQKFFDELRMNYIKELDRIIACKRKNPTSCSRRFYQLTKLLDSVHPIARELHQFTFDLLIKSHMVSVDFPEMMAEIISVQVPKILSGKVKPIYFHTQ
Test: AR Antagonist Cell Assay (MMTV-luciferase reporter, DHT-stimulated)
Type: cell-based
Details: MDA-MB453-MMTV clone 54-19 cells, inhibition of induction by 100 pM DHT, 17 hr
Method: The compounds ability to antagonize the effects of androgen on the androgen receptor were determined in the protocol described immediately below.
Experimental Procedure for AR Antagonist Cell Assay
Cell line: MDA-MB453-MMTV clone 54-19. This cell line is a stable transfected cell line with MDA-MB453 cell background (human breast tumor cell expressing high level of androgen receptor). A MMTV minimal promoter containing ARE was first cloned in front of a firefly luciferase reporter gene. Then the cascade was cloned into transfection vector pUV120puro. Electroporation method was used for transfecting MDA-MB-453 cell. Puromycin resistant stable cell line was selected.
Cell Culture Media and Reagents:
Culture medium: DMEM (high glucose, Gibco cat #: 11960-044), 10% FBS, and 1% L-glutamine
Plating medium: DMEM (phenol red free), 10% charcoal treated HyClone serum, 1% L-glutamine
Assay medium: DMEM (phenol red free), 1% charcoal treated HyClone serum, 1% L-glutamine, and 1% penicillin/streptomycin
3×luciferase buffer: 2% beta-mercaptoethanol, 0.6% ATP, 0.0135% luciferine in cell lysis buffer
• 1. Cells are maintained in culture medium, splitting cells when they reach 80–90% confluence • 2. To test compounds, 10,000 cells/well are plated to opaque 96 cell culture plate in 100 ul/well plating medium, culture for overnight at 37° C. in cell culture incubator • 3. Carefully remove plating medium, then add 80 ul/well of pre-warmed assay medium, add 10 ul/well testing compound (final concentration at 10 uM or 1 uM), incubate at 37° C. for 30 minutes • 4. Add 10 ul/well freshly prepared DHT (final concentration at 100 pM) to each well, incubate at 37° C. for 17 hr (overnight) • 5. Add 50 ul/well 3×luciferase buffer, incubate at room temperature for 5 minutes, then count on Luminometer
The fold induction over background by 100 pM DHT in the absence of testing compounds is standardized as 100% and experimental result is expressed as percentage of inhibition by testing compounds.

Structure (SMILES)	IC50 [µM]
O=c1cc(C(F)(F)F)c2cc(Cc3ccc(S(=O)(=O)N4CCCCCCC4)cc3)ccc2o1 [Example 63, 6-[4-(Azocane-1-sulfonyl)benzyl]-4-trifluoromethylchromen-2-one]	> 10
O=c1cc(C(F)(F)F)c2cc(Cc3ccc(S(=O)(=O)N4CCCc5ccccc54)cc3)ccc2o1 [Example 65, 6-[4-(3,4-Dihydro-2H-sulfonyl)benzyl]-4-trifluoromethylchromen-2-one]	5.9

The remaining lines, values ahead:

IC50 [µM]	Structure (SMILES)
0.52	CC1CN(S(=O)(=O)c2ccc(Cc3ccc4oc(=O)cc(C(F)(F)F)c4c3)cc2)CC(C)O1 (centres unmarked) [Example 60, 6-[4-(2,6-Dimethylmorpholine-4-sulfonyl)benzyl]-4-trifluoromethylchromen-2-one]
> 10	CCOCCN1CCN(S(=O)(=O)c2ccc(Cc3ccc4oc(=O)cc(C(F)(F)F)c4c3)cc2)CC1 [Example 62, 6-{4-[4-(2-Ethoxyethyl)piperazine-1-sulfonyl]benzyl}-4-trifluoromethylchromen-2-one]
2.5	O=c1cc(C(F)(F)F)c2cc(Cc3ccc(S(=O)(=O)N4CCC(CO)CC4)cc3)ccc2o1 [Example 64, 6-[4-(4-Hydroxymethyl-piperidine-1-sulfonyl)benzyl]-4-trifluoromethylchromen-2-one]
